# Source: article PMC5416915, “Elucidation of salicylate attachment in celesticetin biosynthesis opens the door to create a library of more efficient hybrid lincosamide antibiotics” (Chemical Science, 2017)
# How the values were obtained:
# Type in all cases: biochemical
# Ccb2 = target: T1, Ccb2 (Streptomyces caelestis, UniProt E9JET8); assay: LC-MS detection of acyl-AMP conjugate; conditions: ATP
# T1 construct: recombinant, heterologously produced in and purified from E. coli; 548 residues
# T1 sequence (E9JET8 1-548): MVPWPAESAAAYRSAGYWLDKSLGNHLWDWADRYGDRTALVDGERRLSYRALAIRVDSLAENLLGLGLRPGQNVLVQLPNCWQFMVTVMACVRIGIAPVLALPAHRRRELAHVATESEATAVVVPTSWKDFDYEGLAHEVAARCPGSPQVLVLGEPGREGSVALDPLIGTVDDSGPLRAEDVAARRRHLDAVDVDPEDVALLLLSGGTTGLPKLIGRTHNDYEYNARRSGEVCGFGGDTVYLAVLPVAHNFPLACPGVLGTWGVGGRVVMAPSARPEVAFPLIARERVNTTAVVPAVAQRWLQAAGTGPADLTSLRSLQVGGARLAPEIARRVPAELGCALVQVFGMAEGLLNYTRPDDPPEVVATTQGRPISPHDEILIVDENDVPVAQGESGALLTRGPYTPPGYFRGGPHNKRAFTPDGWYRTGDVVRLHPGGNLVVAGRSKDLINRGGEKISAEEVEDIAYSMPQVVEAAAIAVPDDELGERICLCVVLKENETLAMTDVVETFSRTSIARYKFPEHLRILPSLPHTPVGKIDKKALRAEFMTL
# CcbF [1] = target: T2, CcbF (Streptomyces caelestis, UniProt E9JES7); assay: LC-MS, in vitro cascade with Ccb5 and Ccb4; conditions: PLP-dependent; coupled with Ccb5 and Ccb4 to intermediate 45
# T2 construct: recombinant celesticetin biosynthetic protein; construct not described in main text
# T2 sequence (E9JES7 1-416): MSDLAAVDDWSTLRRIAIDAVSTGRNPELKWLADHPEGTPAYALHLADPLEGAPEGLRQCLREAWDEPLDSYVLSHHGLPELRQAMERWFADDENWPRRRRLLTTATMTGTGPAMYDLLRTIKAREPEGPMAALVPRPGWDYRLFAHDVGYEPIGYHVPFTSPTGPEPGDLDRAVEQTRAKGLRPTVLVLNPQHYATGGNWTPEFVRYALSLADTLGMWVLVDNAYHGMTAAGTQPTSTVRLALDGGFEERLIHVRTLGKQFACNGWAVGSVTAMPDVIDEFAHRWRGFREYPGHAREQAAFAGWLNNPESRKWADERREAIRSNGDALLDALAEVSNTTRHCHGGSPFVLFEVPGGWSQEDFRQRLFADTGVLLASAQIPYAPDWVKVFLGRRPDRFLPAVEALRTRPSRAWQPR
# CcbF [2] = target: T2, CcbF; assay: LC-MS, in vitro cascade with Ccb5 with or without Ccb4; conditions: PLP-dependent; coupled with Ccb5
smiles,measurement,setting,value
"O=C(O)c1ccccc1 [compound 6, benzoic acid]",LC-MS detection of acyl-AMP conjugate,Ccb2,We detected products
"CCC[C@@H]1C[C@@H](C(=O)N[C@@H]([C@H]2O[C@H](SC[C@H](N)C(=O)O)[C@H](O)[C@@H](O)[C@H]2O)[C@@H](C)O)N(C)C1 [2a, lincomycin intermediate 2a]","LC-MS, in vitro cascade with Ccb5 and Ccb4",CcbF [1],"in vitro processing of lincomycin intermediate 2a by the celesticetin biosynthetic proteins CcbF, Ccb5, and Ccb4"
"CCC[C@H]1CN[C@H](C(=O)N[C@@H]([C@H]2O[C@H](SC[C@H](N)C(=O)O)[C@H](O)[C@@H](O)[C@H]2O)[C@@H](C)O)C1 [1a, lincomycin intermediate 1a]","LC-MS, in vitro cascade with Ccb5 with or without Ccb4",CcbF [2],Lincomycin intermediates 1a and 2a processed by celesticetin biosynthetic proteins
